Reference: ChEMBL document CHEMBL1132261, “Pneumocystis carinii and Toxoplasma gondii dihydrofolate reductase inhibitors and antitumor agents: synthesis and biological activities of 2,4-diamino-5-methyl-6-[(monosubstituted anilino)methyl] pyrido[2,3-d]pyrimidines” (J Med Chem, 1999)

Legend:
Dihydrofolate reductase [1] = molecular target: T1, Dihydrofolate reductase (Rattus norvegicus, UniProt Q920D2)
T1 sequence (Q920D2 whole entry): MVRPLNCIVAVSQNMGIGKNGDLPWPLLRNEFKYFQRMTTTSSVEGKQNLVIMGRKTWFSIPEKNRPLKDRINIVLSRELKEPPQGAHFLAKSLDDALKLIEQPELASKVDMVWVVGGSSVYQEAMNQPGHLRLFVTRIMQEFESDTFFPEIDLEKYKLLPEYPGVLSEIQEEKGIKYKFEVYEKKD
Description: Inhibition of dihydrofolate reductase (DHFR) from rat liver (rl)

Dihydrofolate reductase [2] = molecular target: T2, Dihydrofolate reductase (Pneumocystis carinii, UniProt P16184)
T2 sequence (P16184 whole entry): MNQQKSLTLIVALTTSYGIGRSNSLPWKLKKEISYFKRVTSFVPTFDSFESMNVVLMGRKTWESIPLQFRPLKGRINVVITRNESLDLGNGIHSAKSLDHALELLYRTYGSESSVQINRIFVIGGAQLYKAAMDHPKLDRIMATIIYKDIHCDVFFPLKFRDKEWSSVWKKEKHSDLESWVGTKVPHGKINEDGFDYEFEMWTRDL
Description: Inhibition of dihydrofolate reductase (DHFR) from Pneumocystis carinii(pc)

[3] = molecular target: T3, Bifunctional dihydrofolate reductase-thymidylate synthase (Toxoplasma gondii, UniProt Q07422); assay: Inhibition of dihydrofolate reductase (DHFR) from Toxoplasma gondii(tg)
T3 sequence (Q07422 whole entry): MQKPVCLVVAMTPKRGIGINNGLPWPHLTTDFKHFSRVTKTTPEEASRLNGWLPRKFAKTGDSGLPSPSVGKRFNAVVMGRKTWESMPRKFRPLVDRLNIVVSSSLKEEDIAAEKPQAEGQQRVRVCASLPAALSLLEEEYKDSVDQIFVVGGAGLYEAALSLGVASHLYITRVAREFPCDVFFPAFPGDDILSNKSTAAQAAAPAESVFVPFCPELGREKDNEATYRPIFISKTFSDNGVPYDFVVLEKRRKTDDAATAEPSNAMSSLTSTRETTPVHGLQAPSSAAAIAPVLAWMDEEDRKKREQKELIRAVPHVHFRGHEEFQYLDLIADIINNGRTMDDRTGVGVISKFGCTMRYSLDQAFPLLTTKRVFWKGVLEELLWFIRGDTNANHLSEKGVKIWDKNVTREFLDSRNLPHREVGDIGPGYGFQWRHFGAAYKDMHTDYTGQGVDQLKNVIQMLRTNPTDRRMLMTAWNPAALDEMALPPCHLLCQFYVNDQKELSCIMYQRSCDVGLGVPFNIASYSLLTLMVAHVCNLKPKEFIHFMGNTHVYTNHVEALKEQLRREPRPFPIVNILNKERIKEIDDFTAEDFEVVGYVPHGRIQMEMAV

[4] = Log Ko/w value by LOGKOW program.; type: ADME; conditions: octanol/water; read-out: Log Ko/w
Toxoplasma gondii = assay: Inhibitory concentration of cell growth from Toxoplasma gondii; type: functional, organism-based
[5] = The compound was tested for ratio of inhibition of cell growth and dihydrofolate reductase(DHFR); type: functional
[6] = The compound was tested for ratio of inhibition of dihydrofolate reductase(DHFR) from rat(rl) liver and Toxoplasma gondii(tg)
[7] = The compound was tested for ratio of inhibition of dihydrofolate reductase(DHFR) from rat(rl) liver and Pneumocystis carinii(pc)

In the case of `Cc1c(CN(C)c2ccccc2Cl)cnc2nc(N)nc(N)c12`, the IC50 (Dihydrofolate reductase [1]) is reported as 100 nM, the IC50 (Dihydrofolate reductase [2]) is reported as 84 nM and the IC50 [3] is reported as 18 nM.
Compound `COc1ccc(NCc2cnc3nc(N)nc(N)c3c2C)cc1` has an IC50 (Dihydrofolate reductase [1]) of 55.6 nM, an IC50 (Dihydrofolate reductase [2]) of 95.4 nM and an IC50 [3] of 12 nM.
Work on `Cc1c(CNc2ccccc2)cnc2nc(N)nc(N)c12` yielded an IC50 (Dihydrofolate reductase [1]) of 170 nM, a logP [4] of 1.79 and an IC50 (Dihydrofolate reductase [2]) of 80 nM. It also gave an IC50 (Toxoplasma gondii) of 317 nM, an IC50 [3] of 17 nM and a Ratio [5] of 19.
Work on `COc1ccc(N(C)Cc2cnc3nc(N)nc(N)c3c2C)cc1OC` yielded a Ratio [6] of 1.5 and a Ratio [7] of 0.1.
`Cc1c(CN(C)c2ccc(Cl)cc2)cnc2nc(N)nc(N)c12` showed an IC50 (Dihydrofolate reductase [1]) of 26 nM, an IC50 (Dihydrofolate reductase [2]) of 29 nM and an IC50 [3] of 5.4 nM.
With `COc1cc(N(C)Cc2cnc3nc(N)nc(N)c3c2C)cc(OC)c1OC` the logP [4] was 1.76.
For `COc1cccc(N(C)Cc2cnc3nc(N)nc(N)c3c2C)c1`, the IC50 (Dihydrofolate reductase [1]) was 18 nM, the IC50 (Dihydrofolate reductase [2]) was 30 nM and the IC50 [3] was 6.3 nM.
Compound `COc1ccc(NCc2cnc3nc(N)nc(N)c3c2C)cc1OC` has an IC50 (Dihydrofolate reductase [1]) of 44 nM.
Compound `COc1ccc(OC)c(N(C)Cc2cnc3nc(N)nc(N)c3c2C)c1` has a logP [4] of 2.42 and a Ratio [5] of 35.
Work on `COc1cccc(NCc2cnc3nc(N)nc(N)c3c2C)c1` yielded an IC50 (Dihydrofolate reductase [1]) of 80.1 nM, a logP [4] of 2.14 and an IC50 (Dihydrofolate reductase [2]) of 68.9 nM. It also gave an IC50 (Toxoplasma gondii) of 371 nM, an IC50 [3] of 7.4 nM and a Ratio [5] of 50.
Compound `Cc1c(CNc2ccccc2Cl)cnc2nc(N)nc(N)c12` has an IC50 (Dihydrofolate reductase [1]) of 88 nM, a logP [4] of 2.35 and an IC50 (Dihydrofolate reductase [2]) of 47 nM. The IC50 (Toxoplasma gondii) was 58 nM, the IC50 [3] was 7.1 nM and the Ratio [5] was 8.
In the case of `COc1ccccc1NCc1cnc2nc(N)nc(N)c2c1C`, the IC50 (Dihydrofolate reductase [1]) is reported as 169 nM, the IC50 (Dihydrofolate reductase [2]) is reported as 117 nM and the IC50 [3] is reported as 23 nM.
For `Cc1c(CNc2ccc(Cl)cc2)cnc2nc(N)nc(N)c12`, the IC50 (Dihydrofolate reductase [1]) was 51 nM, the IC50 (Dihydrofolate reductase [2]) was 55.4 nM and the IC50 [3] was 19 nM.
With `Cc1c(CNc2cccc(Cl)c2)cnc2nc(N)nc(N)c12` the IC50 (Dihydrofolate reductase [1]) was 37 nM, the IC50 (Dihydrofolate reductase [2]) was 23 nM and the IC50 [3] was 11 nM.
For `Cc1c(CNc2ccc(Br)cc2)cnc2nc(N)nc(N)c12`, the IC50 (Dihydrofolate reductase [1]) was 34.9 nM, the IC50 (Dihydrofolate reductase [2]) was 80.8 nM and the IC50 [3] was 9.5 nM.
`COc1ccc(N(C)Cc2cnc3nc(N)nc(N)c3c2C)cc1` showed an IC50 (Dihydrofolate reductase [1]) of 13 nM, an IC50 (Dihydrofolate reductase [2]) of 35 nM and an IC50 [3] of 7.3 nM.
With `Cc1c(CN(C)c2ccc(Br)cc2)cnc2nc(N)nc(N)c12` the IC50 (Dihydrofolate reductase [1]) was 36 nM, the IC50 (Dihydrofolate reductase [2]) was 37 nM and the IC50 [3] was 30 nM.
